Values of other authors, collected in patent publication US20260224647A1, “Microbial compositions for treating joint inflammation” (Katholieke Universiteit Leuven, priority 2023, published 2026).

Test system: rheumatoid arthritis
Conditions: twice daily administration

Lactobacillus rhamnosus GG
Activity of rheumatoid arthritis: no statistically significant differences
